In PubChem BioAssay (NCI):
“And” between values parts separate entries of the source, which are not always exact repeats. Identical values can stand only once.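 Grown in 96-well plates, cells were treated for 48 hours with each compound at five concentrations. Insufficient inhibition: endpoint recorded as highest concentration tested. At the GI50, growth is halved. At the TGI there is no net growth.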

Columns and labels:
Assay in all cases: NCI tumour cell line growth inhibition, 48 h
[1] = tested on: DMS 273 small cell lung
[2] = tested on: DMS 114 small cell lung
[3] = tested on: HOP-18 NSCLC
[4] = tested on: LXFL 529 NSCLC
[5] = tested on: DLD-1 colon
[6] = tested on: SNB-78 CNS
[7] = tested on: RXF-631 renal
[8] = tested on: XF 498 CNS
[9] = tested on: P388/ADR leukemia
[10] = tested on: P388 leukemia
[11] = tested on: SN12K1 renal

Compound	TGI [1]	TGI [2]	TGI [3]	TGI [4]	TGI [5]	TGI [6]	TGI [7]	GI50 [8]	TGI [8]	TGI [9]	TGI [10]	TGI [11]
Cc1nc2cc(Nc3ccccc3C(=O)O)ccc2s1	> 100 µM	> 100 µM	> 100 µM	> 100 µM	> 100 µM	–	–	–	–	–	–	–
NC(=O)CC(N=Cc1nc(-c2ccccc2)oc1O)C(=O)O (stereo unspecified)	> 100 µM	> 100 µM	> 100 µM	> 100 µM	> 100 µM	> 100 µM	> 100 µM	–	–	–	–	–
O=C(O)/C=C/c1c[nH]c(=O)[nH]c1=O	> 500 µM	> 500 µM	> 500 µM	–	> 500 µM	> 500 µM	–	> 500 µM and 151 µM	> 500 µM	> 500 µM	> 500 µM	> 500 µM
NC(=S)N1N=C2c3ccccc3CC[C@H]2[C@@H]1c1ccc(Cl)cc1	73.3 µM	70.6 µM	> 100 µM	> 100 µM	> 100 µM	> 100 µM	–	–	60.6 µM	–	–	–
CC(=O)c1ccc(NC(=O)C(=O)C(C#N)CC(C)(C)C=O)cc1 (stereo unspecified)	–	–	–	> 100 µM	–	> 100 µM	–	–	> 100 µM	–	–	–
O=c1[nH]cnc2c(COCCO)c[nH]c12	> 100 µM	> 100 µM	> 100 µM	> 100 µM	> 100 µM	> 100 µM	> 100 µM	–	> 100 µM	–	–	–
Cn1cc(C(=O)c2ccccc2)cc(C(=O)c2ccccc2)c1=O	> 100 µM	> 100 µM	–	> 100 µM	> 100 µM	> 100 µM	> 100 µM	–	> 100 µM	–	–	–
C/C(N=NS(=O)(=O)c1ccc([N+](=O)[O-])cc1)=C1\C=CC=CN1O	> 100 µM	> 100 µM	> 100 µM	> 100 µM	> 100 µM	> 100 µM	–	–	> 100 µM	–	–	–
COc1ccc(NC(=O)CC(=O)n2nc(C)c(N=Nc3ccccc3C(=O)O)c2C)cc1	> 100 µM	> 100 µM	–	> 100 µM	> 100 µM	> 100 µM	–	–	> 100 µM	–	–	–
C[C@H](CCC1SC1(C)C)C1CCC2(C)C3=C(CC[C@]12C)[C@@]1(C)CC[C@H](O)C(C)(C)C1CC3 (stereo partly specified)	> 100 µM	> 100 µM	> 100 µM	> 100 µM	> 100 µM	–	–	–	> 100 µM	–	–	–
C#CCN(Cc1ccc2nc(-c3ccccc3)c(N)nc2c1)c1cc(OC)c(OC)c(OC)c1	42.8 µM	37.7 µM	–	91.2 µM	–	78.9 µM	–	–	59.5 µM	–	–	–
COc1cc(C(C)O)c[n+](CCC2CNc3ccccc32)c1 (stereo unspecified)	> 100 µM	> 100 µM	–	> 100 µM	> 100 µM	–	–	–	> 100 µM	–	–	–
